The text below walks through data of paper PMC12650660, “Novel Synthetic Strategies Towards Analogues of Cadaside and Malacidin Antibiotic Peptides” (Biomolecules, 2025).

Series [1] is described as follows: tail-to-side-chain lactamisation of side-chain-protected peptide (Dap2 beta-NH2 + C-terminal Pro), HATU/DIPEA, microwave. As to conditions: the molecule shown is the open-chain precursor; 28-membered ring; DCM; 6.0 mM; 70.0 °C; 1.0 h.
Details of series [2]: key: “+” indicates binding confirmed; “-” indicates no binding; “~” indicates potential binding with absence of precursor band. As to conditions: Table S2; ref SI [7], [9], [10]; cited from earlier work. The source says:
page 11: Table S2: Summary of the ability of CDAs to bind cell wall synthesis precursors, as well as tendency to induce membrane depolarisation. “+” indicates binding, “-” indicates no binding, “n.d.” indicates binding has not been determined. * indicates binding occurs in the presence of phosphatidylglycerol. Peptide C -P C-PP Lipid I Lipid II Membrane 55 55 Depolarisation Daptomycin [1]–[4] + * + * n.d. + * + A54145 [5] n.d. n.d. n.d. n.d. + Tsushimycin [4] + n.d. n.d. n.d. n.d. Laspartomycin [6] + n.d. n.d. n.d. - Friulimicin [7] + - - - - Taromycin n.d. n.d. n.d. n.d. n.d. Amphomycin [9], ...

A short description of series [3]: head-to-tail type lactamisation of side-chain-protected branched depsipeptide (Gly10 N-terminus of ester branch + C-terminal Pro9), HATU/DIPEA (pH ~10), microwave. As to conditions: the molecule shown is the open-chain precursor; 28-membered ring; DCM; 6.0 mM; 70.0 °C; 1.0 h.

For the compound `CCCCCCCCCC(=O)N[C@@H](CC(=O)OC(C)(C)C)C(=O)N[C@@H](CN)C(=O)N[C@@H](C(=O)N[C@@H](CCCCNC(=O)OC(C)(C)C)C(=O)N[C@@H](CC(=O)OC(C)(C)C)C(=O)N[C@@H](CC(=O)OC(C)(C)C)C(=O)N(CC(=O)N[C@H](CC(=O)OC(C)(C)C)C(=O)N[C@H](C(=O)N1CCC[C@H]1C(=O)O)C(C)C)Cc1ccc(OC)cc1OC)C(C)C`, the ring closure, overall yield in series [1] was determined as 1.3%.
Take Friulimicin: in series [2], the “Lipid I binding (reported)” value is reported as “-”.
With `CCCCCCCCCC(=O)NC[C@@H](C)C(=O)NCC(=O)N[C@H](CCC(=O)OC(C)(C)C)C(=O)N[C@@H](Cc1ccc(OC(C)(C)C)cc1)C(=O)N[C@H](C(=O)N[C@@H](C(=O)N[C@@H](CC(=O)OC(C)(C)C)C(=O)N[C@@H](CC(=O)OC(C)(C)C)C(=O)N1CCC[C@H]1C(=O)O)[C@H](C)CC)[C@@H](C)OC(=O)CN(C)C(=O)[C@H](CC(=O)OC(C)(C)C)NC(=O)[C@@H](CC(=O)OC(C)(C)C)NC(=O)CN`, the ring closure, overall yield in series [3] amounted to 0.3%.
As to Amphomycin, in series [2], the “Lipid I binding (reported)” value is on record as “-”.
`CCCCCCCCCC(=O)NC[C@@H](C)C(=O)NCC(=O)N[C@H](CCC(=O)OC(C)(C)C)C(=O)N[C@@H](Cc1ccc(OC(C)(C)C)cc1)C(=O)N[C@H](C(=O)N[C@@H](C(=O)N[C@@H](CC(=O)OC(C)(C)C)C(=O)N[C@@H](CC(=O)OC(C)(C)C)C(=O)N1CCC[C@H]1C(=O)O)[C@H](C)CC)[C@@H](C)OC(=O)CN(C)C(=O)[C@H](CC(=O)OC(C)(C)C)NC(=O)[C@H](CCC(=O)OC(C)(C)C)NC(=O)CN`: the ring closure, overall yield in series [3] came out at 0.2%.
In the case of `CCCCCCCCCC(=O)NC[C@@H](C)C(=O)NCC(=O)N[C@H](CCC(=O)OC(C)(C)C)C(=O)N[C@@H](Cc1ccc(OC(C)(C)C)cc1)C(=O)N[C@H](C(=O)N[C@@H](C(=O)N[C@@H](CC(=O)OC(C)(C)C)C(=O)N[C@@H](CC(=O)OC(C)(C)C)C(=O)N1CCC[C@H]1C(=O)O)[C@H](C)CC)[C@@H](C)OC(=O)CN(C)C(=O)[C@H](CCC(=O)OC(C)(C)C)NC(=O)[C@@H](CC(=O)OC(C)(C)C)NC(=O)CN`, in series [3], the ring closure, overall yield was 0.3%.
For the compound `CCCCCCCCCC(=O)NC[C@@H](C)C(=O)NCC(=O)N[C@H](CCC(=O)OC(C)(C)C)C(=O)N[C@@H](Cc1ccc(OC(C)(C)C)cc1)C(=O)N[C@H](C(=O)N[C@@H](C(=O)N[C@@H](CC(=O)OC(C)(C)C)C(=O)N[C@@H](CC(=O)OC(C)(C)C)C(=O)N1CCC[C@H]1C(=O)O)[C@H](C)CC)[C@@H](C)OC(=O)CN(C)C(=O)[C@H](CC(=O)OC(C)(C)C)NC(=O)[C@@H](CCC(=O)OC(C)(C)C)NC(=O)CN`, in series [3], the ring closure, overall yield stood at 0.4%.
